Laboratory results as given in US20040087623A1, “Pyrazole derivatives against tgf overexpression” (priority 2001, published 2004).
Structures can show the parent of a compound that is named as a salt.

The compounds below were run on TGF-β signaling (PAI-1 promoter-luciferase in HepG2 cells) (assay: Assay 1: inhibition of TGF-β induced PAI-1 promoter luciferase reporter in HepG2 cells). Conditions: 500 μM CPO with TGF-β; % of those obtained in column 11 (TGF-β only).
Procedure: The assay was performed in HepG2 cells stably transfected with the PAI-1 promoter (known to be a strong TGF-β responsive promoter) linked to a luciferase (firefly) reporter gene. The compounds were selected on their ability to inhibit luciferase activity in cells exposed to TGF-β. In addition cells were transfected with a second luciferase (Renilla) gene which was not driven by a TGF-β responsive promoter and was used as a toxicity control.
(96 well-)microplates are seeded, using a multidrop apparatus, with the stably transfected cell line at a concentration of 35000 cells per well in 200 μl of serum-containing medium. These plates are placed in a cell incubator.
18 to 24 hours later (Day 2), cell-incubation procedure is launched. Cells are incubated with TGF-β and a candidate compound at concentrations in the range 50 nM to 10 μM (final concentration of DMSO 1%). The final concentration of TGF-β (rhTGFβ-1) used in the test is 1 ng/mL. […] The final volume of the test reaction is 150 μl. Each well contains only one candidate compound and its effect on the PAI-1 promoter is monitored.
Columns 11 and 12 are employed as controls. Column 11 contains 8 wells in which the cells are incubated in the presence of TGF-β, without a candidate compound. Column 11 is used to determine the ‘reference TGF-β induced firefly luciferase value’ against which values measured in the test wells (to quantify inhibitory activity) may be compared. In wells A12 to D12, cells are grown in medium without TGF-β. The firefly luciferase values obtained from these positions are representative of the ‘basal firefly luciferase activity’. In wells E12 to H12, cells are incubated in the presence of TGF-β and 500 μM CPO (Cyclopentenone, Sigma), a cell toxic compound.
12 to 18 hours later (day 3), the luciferase quantification procedure is launched. The following reactions are performed using reagents obtained from a Dual Luciferase Assay Kit (Promega). Cells are washed and lysed with the addition of 10 μl of passive lysis buffer (Promega). Following agitation (15 to 30 mins), luciferase activities of the plates are read in a dual-injector luminometer (BMG lumistar). For this purpose, 50 μl of luciferase assay reagent and 50 μl of ‘Stop & Glo’ buffer are injected sequentially to quantify the activities of both luciferases. The mean Luciferase activity value obtained in wells A11 to H11 (Column 11, TGF-β only) is considered to represent 100% and values obtained in wells A12 to D12 (cells in medium alone) give a basal level (0%). For each of the compounds tested, a concentration response curve is constructed from which an IC50 value can be determined graphically.
`O=C1C=CCC1` [CPO, Cyclopentenone, reference compound] was tested, and the “firefly and renilla luciferase activities (toxicity control)” value was “around 50%”.

Same assay, conditions: Homo sapiens, HepG2, read-out: IC50 value in Assay 1
`c1ccc(-c2cc(-c3c[nH]nc3-c3ccccn3)ccn2)cc1` [Example 1, 2-Phenyl-4-(3-pyridin-2-yl-1H-pyrazol-4-yl)pyridine] showed an IC50 of no more than 5 µM.
With `FC(F)(F)c1ccc(-c2cc(-c3c[nH]nc3-c3ccccn3)ccn2)cc1` [Example 2, 2-[4(Trifluoromethyl)Phenyl]-4-(3-pyridin-2-yl-1H-pyrazol-4-yl) Pyridine] the IC50 was no more than 5 µM.
`COc1ccc(-c2cc(-c3c[nH]nc3-c3ccccn3)ccn2)cc1` [Example 3, 2-(4-Methoxyphenyl)-4-(3-pyridin-2-yl-1H-pyrazol-4-yl)pyridine] gave an IC50 of no more than 5 µM.
Work on `Fc1ccc(-c2cc(-c3c[nH]nc3-c3ccccn3)ccn2)cc1` [Example 4, 2-(4-Fluorophenyl)-4-(3-pyridin-2-yl-1H-pyrazol-4-yl)pyridine] yielded an IC50 of no more than 5 µM.
`Clc1ccc(-c2cc(-c3c[nH]nc3-c3ccccn3)ccn2)cc1` [Example 5, 2-(4-Chlorophenyl)-4-(3-pyridin-2-yl-1H-pyrazol4-yl)pyridine] gave an IC50 of no more than 5 µM.
With `c1ccc(-c2n[nH]cc2-c2ccnc(-c3ccco3)c2)nc1` [Example 6, 2-(Furan-2-yl)-4-(3-pyridin-2-yl-1H-pyrazol-4-yl)pyridine] the IC50 was no more than 5 µM.
Compound `FC(F)(F)Oc1ccc(-c2cc(-c3c[nH]nc3-c3ccccn3)ccn2)cc1` [Example 7, 2-(4-Trifluoromethoxyphenyl)-4-(3-pyridin-2-yl-1H-pyrazol-4-yl)pyridine] has an IC50 of no more than 5 µM.
`Cc1ccc(-c2cc(-c3c[nH]nc3-c3ccccn3)ccn2)cc1` [Example 8, 2-(4-Methylphenyl)-4-(3-pyridin-2-yl-1H-pyrazol-4-yl)pyridine] gave an IC50 of no more than 5 µM.
`CCc1ccc(-c2cc(-c3c[nH]nc3-c3ccccn3)ccn2)cc1` [Example 9, 2-(4-Ethylphenyl)-4-(3-pyridin-2-yl-1H-pyrazol-4-yl)pyridine] was tested, and the IC50 was no more than 5 µM.
`c1ccc(-c2n[nH]cc2-c2ccnc(-c3ccsc3)c2)nc1` [Example 10, 2-(Thiophen-3-yl)-4-(3-pyridin-2-yl-1H-pyrazol-4-yl)pyridine] showed an IC50 of no more than 5 µM.
In the case of `c1ccc(-c2n[nH]cc2-c2ccnc(-c3ccc(OCCN4CCCC4)cc3)c2)nc1` [Example 11, 2-[4-(2-Pyrrolidin-1-ylethoxy)-phenyl]-4-(3-pyridin-2-yl-1H-pyrazol-4-yl)pyridine], the IC50 is reported as no more than 5 µM.
`N#CCCNCc1ccc(-c2cc(-c3c[nH]nc3-c3ccccn3)ccn2)cc1` [Example 12, 3-({4-[4-(3-Pyridin-2-yl-1H-pyrazol-4-yl)pyridin-2-yl]benzyl}amino)propanenitrile] was tested, and the IC50 was no more than 5 µM.
`c1ccc(-c2n[nH]cc2-c2ccnc(-c3ccc(N4CCOCC4)cc3)c2)nc1` [Example 13, 4-{4-[4-(3-Pyridin-2-yl-1H-pyrazol-4-yl)-pyridin-2-yl]-phenyl}-morpholine] was tested, and the IC50 was no more than 5 µM.
`Cn1cnc(COc2ccc(-c3cc(-c4c[nH]nc4-c4ccccn4)ccn3)cc2)c1` [Example 14, 2-[4-(1-Methyl-1-H-imidazol-4-ylmethoxy)-phenyl]-4-(3-pyridin-2-yl-1H-pyrazol-4-yl)-pyridine] was tested, and the IC50 was no more than 5 µM.
With `Cn1ccnc1COc1ccc(-c2cc(-c3c[nH]nc3-c3ccccn3)ccn2)cc1` [Example 15, 2-[4-(1-Methyl-1H-imidazol-2-ylmethoxy)-phenyl]-4-(3-pyridin-2-yl-1H-pyrazol-4-yl)pyridine] the IC50 was no more than 5 µM.
`Cn1cncc1COc1ccc(-c2cc(-c3c[nH]nc3-c3ccccn3)ccn2)cc1` [Example 16, 2-[4-(3-Methyl-3H-imidazol-4-ylmethoxy)-phenyl]-4-(3-pyridin-2-yl-1-H-pyrazol-4)-pyridine] gave an IC50 of no more than 5 µM.
For `c1ccc(-c2n[nH]cc2-c2ccnc(-c3ccc(OCCn4ccnc4)cc3)c2)nc1` [Example 17, 2-[4-(2-{1H-Imidazol-1-yl}-ethoxy)-phenyl]-4-(3-pyridin-2-yl-1H-pyrazol-4-yl)-pyridine], the IC50 was no more than 5 µM.
Compound `c1ccc(-c2n[nH]cc2-c2ccnc(-c3ccc(CNC4CCOCC4)cc3)c2)nc1` [Example 18] has an IC50 of no more than 5 µM.
With `c1ccc(-c2n[nH]cc2-c2ccnc(-c3ccc(CN4CCOCC4)cc3)c2)nc1` [Example 19, {4-[4-(3-Pyridin-2-yl-1H-pyrazol-4-yl)pyridin-2-yl]benzyl}-morpholine hydrochloride] the IC50 was no more than 5 µM.
`CN(Cc1ccc(-c2cc(-c3c[nH]nc3-c3ccccn3)ccn2)cc1)c1cccnc1` [Example 20, Pyridin-3-yl-methyl-{4-[4-(3-pyridin-2-yl-1H-pyrazol-4-yl)pyridin-2-yl]benzyl}-amine] showed an IC50 of no more than 5 µM.
`O=C(CN1CCCCC1)Nc1ccc(-c2cc(-c3c[nH]nc3-c3ccccn3)ccn2)cc1` [Example 21, 2-Piperidin-1-yl-N-{4-[4-(3-pyridin-2-yl-1H-pyrazol-4-yl)-pyridin-2-yl]-phenyl}-acetamide] gave an IC50 of no more than 5 µM.
Work on `O=C(CN1CCCC1)Nc1ccc(-c2cc(-c3c[nH]nc3-c3ccccn3)ccn2)cc1` [Example 22, 2-Pyrrolidin-1-yl-N-{4-[4-(3-pyridin-2-yl-1H-pyrazol-4-yl)-pyridin-2-yl]-phenyl}-acetamide] yielded an IC50 of no more than 5 µM.
With `O=C(CN1CCOCC1)Nc1ccc(-c2cc(-c3c[nH]nc3-c3ccccn3)ccn2)cc1` [Example 23, 2-Morpholin-1-yl-N-{4-[4-(3-pyridin-2-yl-1H-pyrazol-4-yl)-pyridin-2-yl]phenyl}-acetamide] the IC50 was no more than 5 µM.
For `CN1CCN(CC(=O)Nc2ccc(-c3cc(-c4c[nH]nc4-c4ccccn4)ccn3)cc2)CC1` [Example 24, 2-(4-Methyl-piperazin-1-yl)-N-{4-[4-(3-pyridin-2-yl-1H-pyrazol-4-yl)-pyridin-2-yl]-phenyl}-acetamide], the IC50 was no more than 5 µM.
For `O=C(CCN1CCCCC1)Nc1ccc(-c2cc(-c3c[nH]nc3-c3ccccn3)ccn2)cc1` [Example 25, 3-Piperidin-1-yl-N{4-[4-(3-pyridin-2-yl-1H-pyrazol-4-yl)-pyridin-2-yl]-phenyl}-propionamide hydrochloride], the IC50 was no more than 5 µM.
`O=C(CCN1CCOCC1)Nc1ccc(-c2cc(-c3c[nH]nc3-c3ccccn3)ccn2)cc1` [Example 26] gave an IC50 of no more than 5 µM.
`CN1CCN(CCC(=O)Nc2ccc(-c3cc(-c4c[nH]nc4-c4ccccn4)ccn3)cc2)CC1` [Example 27, 3-(4-Methyl-piperazin-1-yl)-N{4-[4-(3-pyridin-2-yl-1H-pyrazol-4-yl)-pyridin-2yl]-phenyl}-propionamide] showed an IC50 of no more than 5 µM.
With `O=C(NC1CCOCC1)c1ccc(-c2cc(-c3c[nH]nc3-c3ccccn3)ccn2)cc1` [Example 28, 4-[4-(3-Pyridin-2-yl-1H-pyrazol-4-yl)-pyridin-2-yl]-N-(tetrahydro-pyran-4-yl)-benzamide] the IC50 was no more than 5 µM.
For `CCN1CCCC1CNC(=O)c1ccc(-c2cc(-c3c[nH]nc3-c3ccccn3)ccn2)cc1` (stereo not shown) [Example 29, N-(1-Ethyl-pyrolidin-2-ylmethyl)-4-[4-(3-pyridin-2-yl-1H-pyrazol-4-yl)-pyridin-2-yl]-benzamide], the IC50 was no more than 5 µM.
Compound `COC1CCN(Cc2ccc(-c3cc(-c4c[nH]nc4-c4ccccn4)ccn3)cc2)CC1` [Example 34, 4-Methoxy-1-{4-[4-(3-pyridin-2-yl-1H-pyrazol-4-yl)pyridin-2-yl]benzyl}-piperidine] has an IC50 of no more than 5 µM.
`CN1CCC(NCc2ccc(-c3cc(-c4c[nH]nc4-c4ccccn4)ccn3)cc2)CC1` [Example 37, (1-Methyl-piperidin-4-yl)-{4-[4-(3-pyridin-2-yl-1H-pyrazol-4-yl)pyridin-2-yl]benzyl}-amine] showed an IC50 of no more than 5 µM.
For `CN1CCN(C(=O)c2ccc(-c3cc(-c4c[nH]nc4-c4ccccn4)ccn3)cc2)CC1` [Example 38, 1-Methyl-4-{4-[4-(3-pyridin-2-yl-1H-pyrazol-4-yl)-pyridin-2-yl]-benzoyl}-piperazine], the IC50 was no more than 5 µM.
Work on `O=C(c1ccc(-c2cc(-c3c[nH]nc3-c3ccccn3)ccn2)cc1)N1CCOCC1` [Example 39, 4-{4-[4-(3-Pyridin-2-yl-1H-pyrazol-4-yl)-pyridin-2-yl]-benzoyl}-morpholine] yielded an IC50 of no more than 5 µM.
`CN(C)C1CCN(C(=O)c2ccc(-c3cc(-c4c[nH]nc4-c4ccccn4)ccn3)cc2)CC1` [Example 40, (4-Dimethylamino)-1-{4-[4-(3-pyridin-2-yl-1H-pyrazol-4-yl)-pyridin-2-yl]-benzoyl}-piperidine] showed an IC50 of no more than 5 µM.
Work on `CN(C)Cc1ccc(-c2cc(-c3c[nH]nc3-c3ccccn3)ccn2)cc1` [Example 43, Dimethyl-{4-[4-(3-pyridin-2-yl-1H-pyrazol-4-yl)pyridin-2-yl]-benzyl}-amine] yielded an IC50 of no more than 5 µM.
`O=C(NCC1CCOCC1)c1ccc(-c2cc(-c3c[nH]nc3-c3ccccn3)ccn2)cc1` [Example 44, 4-[4-(3-Pyridin-2-yl-1H-pyrazol-4-yl)-pyridin-2-yl]-N-(tetrahydropyran-4-yl-methyl)-benzamide] showed an IC50 of no more than 5 µM.
`COCCN(C)C(=O)c1ccc(-c2cc(-c3c[nH]nc3-c3ccccn3)ccn2)cc1` [Example 45, N-(2-Methoxy-ethyl)-N-methyl-4-[4-(3-pyridin-2-yl-1H-pyrazol-4-yl)-pyridin-2-yl]-benzamide] showed an IC50 of no more than 5 µM.
For `COCCNC(=O)c1ccc(-c2cc(-c3c[nH]nc3-c3ccccn3)ccn2)cc1` [Example 46, N-(2-Methoxy-ethyl)-4-[4-(3-pyridin-2-yl-1H-pyrazol-4-yl)-pyridin-2-yl]-benzamide], the IC50 was no more than 5 µM.
For `O=C(NCC1CCCCC1)c1ccc(-c2cc(-c3c[nH]nc3-c3ccccn3)ccn2)cc1` [Example 47, N-Cyclohexylmethyl-4-[4-(3-pyridin-2-yl-1H-pyrazol-4-yl)-pyridin-2-yl]-benzamide], the IC50 was no more than 5 µM.
